Measurements reported in US20070218121A1, “Compounds that inhibit caspase activity for treating glaucoma” (priority 1997, published 2007).

Tested on: HEK-293-nNOS cells transfected with mICE-lacZ (caspase-1)
Assay: Inhibition of caspase-induced apoptosis by endogenous NO in HEK-293-nNOS cells transfected with mICE-lacZ (propidium iodide, apoptotic nuclei count)
Assay type: cell-based
Conditions: 6 μM 4-Br-A23187 for 48 h after caspase-1 transfection; raises Ca2+ to activate nNOS and produce NO; p≦0.007; FIG. 1
Protocol: HEK-293 cells [Bredt et al., Nature 351: 714-719 (199)] overexpressing nNOS were transiently transfected with mICE-lacZ (containing the caspase-1 construct [Miura et al., Cell 75: 653-660 (1993)] or control placZ using the calcium phosphate precipitation method. Following transfection, cells were incubated in absence (0 μM) or presence of 6 μM 4-Br-A23187 for 48 h. Cells were then permeabilized, fixed, and stained with propidium iodide. Apoptotic nuclei were counted in ≧12 fields and results expressed as a percentage of total nuclei. The results are shown in FIG. 1. Values are the mean ± SEM for n≧3 from at least two experiments.

CNc1c(Br)cc2oc(C[C@H]3OC4(CC[C@H]3C)O[C@H]([C@H](C)C(=O)c3ccc[nH]3)[C@H](C)C[C@H]4C)nc2c1C(=O)O (stereo partly shown) [4-Br-A23187]
apoptosis (apoptotic nuclei as percentage of total nuclei): highly significant decrease in apoptosis
